Assay results: patent US11236046B2, “Substituted heterocyclic sulfonamide compounds useful as TRPA1 modulators” (Genentech, Inc., priority 2013, dated 2022)

Biological target: human TRPA1 (Homo sapiens (Human), UniProt O75762)
Experiment: FLIPR Tetra calcium influx assay, block of cinnamaldehyde-induced calcium influx in CHO cells expressing TRPA1 (human)
Type: cell-based
Settings: 20 min compound incubation, 75 uM cinnamaldehyde (~EC80), Hill coefficient fixed to 1.5, read-out: hTRPA1 AUC IC50
Protocol: IC50 Determinations of Exemplified Compounds.
IC50s (effective concentration) of compounds on the human and rat TRPA1 channels were determined using a FLIPR Tetra instrument. CHO cells expressing TRPA1 were plated into 384-well plates, incubated overnight at 37C, and loaded with BD calcium indicator dye for 1 hr at 37° C. followed by 15 minutes. at room temperature. The assay buffer was Hank's Balanced Salt Solution (HBSS) containing 20 mM HEPES (pH readjusted to 7.4) along with 0.02% BSA.
Following dye load and plate cool down, compounds were added to the cells using FLIPR Tetra. Plates were then incubated with compounds for 20 minutes at room temperature prior to adding agonist. Following this incubation, ˜EC80 concentration of cinnamaldehyde (75 uM for human TRPA1 and 45 uM for rat TRPA1) was added to active the channels and block of cinnamaldehyde induced calcium influx was measured.
Fixing the Hill coefficient will generally reduce variability of the IC50 determination. The IC50s were individually examined to make sure the MIN and MAX points were set correctly prior to validation of the results.

human TRPA1, sequence (O75762 whole entry): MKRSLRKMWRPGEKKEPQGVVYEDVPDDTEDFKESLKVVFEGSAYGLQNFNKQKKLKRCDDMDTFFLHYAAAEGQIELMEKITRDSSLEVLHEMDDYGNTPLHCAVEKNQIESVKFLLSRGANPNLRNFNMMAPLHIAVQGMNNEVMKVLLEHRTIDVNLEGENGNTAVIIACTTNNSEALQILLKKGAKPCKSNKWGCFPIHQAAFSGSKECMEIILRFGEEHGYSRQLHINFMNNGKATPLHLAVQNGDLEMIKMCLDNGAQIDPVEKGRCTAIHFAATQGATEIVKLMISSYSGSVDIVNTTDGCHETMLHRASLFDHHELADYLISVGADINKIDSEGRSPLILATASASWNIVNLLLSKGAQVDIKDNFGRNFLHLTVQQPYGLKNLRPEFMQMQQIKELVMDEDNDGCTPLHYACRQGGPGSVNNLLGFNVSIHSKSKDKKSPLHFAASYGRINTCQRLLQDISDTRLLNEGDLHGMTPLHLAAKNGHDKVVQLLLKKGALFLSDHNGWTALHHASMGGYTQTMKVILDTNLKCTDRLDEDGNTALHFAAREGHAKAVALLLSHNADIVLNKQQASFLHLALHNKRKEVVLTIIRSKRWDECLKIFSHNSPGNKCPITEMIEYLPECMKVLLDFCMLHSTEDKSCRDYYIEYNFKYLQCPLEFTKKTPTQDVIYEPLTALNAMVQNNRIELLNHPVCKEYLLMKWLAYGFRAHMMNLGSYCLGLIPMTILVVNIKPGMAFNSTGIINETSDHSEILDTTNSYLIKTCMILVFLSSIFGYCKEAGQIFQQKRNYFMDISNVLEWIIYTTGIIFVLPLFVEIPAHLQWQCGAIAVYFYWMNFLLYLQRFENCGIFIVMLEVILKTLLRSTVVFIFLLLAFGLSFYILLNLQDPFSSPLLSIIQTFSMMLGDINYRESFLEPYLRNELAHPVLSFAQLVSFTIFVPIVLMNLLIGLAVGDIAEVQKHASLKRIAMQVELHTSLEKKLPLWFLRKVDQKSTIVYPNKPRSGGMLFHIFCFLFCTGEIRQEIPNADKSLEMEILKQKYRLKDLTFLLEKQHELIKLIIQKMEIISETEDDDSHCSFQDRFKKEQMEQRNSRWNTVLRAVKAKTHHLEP

| Molecule | IC50 |
| --- | --- |
| C[C@H]1[C@H](F)C[C@@H](C(=O)NCc2ccnc(-c3cnc(C(F)(F)F)nc3)c2)N1S(=O)(=O)c1ccc(F)cc1 [Example 193, (2S,4R,5S)-4-fluoro-1-[(4-fluorobenzene)sulfonyl]-5-methyl-N-([2-[2-(trifluoromethyl)pyrimidin-5-yl]pyridin-4-yl]methyl)pyrrolidine-2-carboxamide] | 15 nM |
| COc1cnc(CNC(=O)[C@@H]2C[C@@H](F)CN2S(=O)(=O)c2ccc(F)cc2)cc1-c1ccc(C(F)(F)F)nc1 [Example 108, (2S,4R)-4-fluoro-1-[(4-fluorobenzene)sulfonyl]-N-([5-methoxy-4-[6-(trifluoromethyl)pyridin-3-yl]pyridin-2-yl]methyl)pyrrolidine-2-carboxamide] | 256 nM |
| O=C(NCc1cc(-c2cnc(C(F)(F)F)nc2)ccn1)[C@@H]1C[C@@H](F)CN1S(=O)(=O)c1ccc(F)cc1 [Example 53, (2S,4R)-4-fluoro-1-(4-fluorophenyl)sulfonyl-N-[[4-[2-(trifluoromethyl)pyrimidin-5-yl]-2-pyridyl]methyl]pyrrolidine-2-carboxamide] | 411 nM |
| C[C@@]1(C(=O)NCc2cc(-c3ccc(C(F)(F)F)nc3)ncn2)C[C@@H](F)CN1S(=O)(=O)c1ccc(F)cc1 (single isomer, unassigned) [Example 142] | 92 nM |
| Cc1cc(CNC(=O)[C@@H]2C[C@@H](F)CN2S(=O)(=O)c2ccc(F)cc2)cc(-c2cnc(C(F)(F)F)nc2)n1 [Example 43, (2S,4R)-4-fluoro-1-(4-fluorophenyl)sulfonyl-N-[[2-methyl-6-[2-(trifluoromethyl)pyrimidin-5-yl]-4-pyridyl]methyl]pyrrolidine-2-carboxamide] | 47 nM |
| O=C(NCc1cc(-c2ccc(C(F)(F)F)nc2)ccn1)[C@@H]1C[C@@H](F)CN1S(=O)(=O)c1ccc(F)cc1 [Example 81, (2S,4R)-4-fluoro-1-(4-fluorophenyl)sulfonyl-N-[[4-[6-(trifluoromethyl)-3-pyridyl]-2-pyridyl]methyl]pyrrolidine-2-carboxamide] | 187 nM |
| C[C@@H]1CC[C@@H](C(=O)NCc2cc(-c3ccc(C(F)(F)F)nc3)ncn2)N1S(=O)(=O)c1ccc(F)cc1 [Example 39, (2S,5R)-1-[(4-fluorobenzene)sulfonyl]-5-methyl-N-([6-[6-(trifluoromethyl)pyridin-3-yl]pyrimidin-4-yl]methyl)pyrrolidine-2-carboxamide] | 45 nM |
| O=C(NCc1cc(F)cc(-n2ccc(C(F)(F)F)n2)c1)[C@@H]1C[C@@H](F)CN1S(=O)(=O)c1ccc(F)cc1 [Example 87, (2S,4R)-4-fluoro-1-(4-fluorophenyl)sulfonyl-N-[[3-fluoro-5-[3-(trifluoromethyl)pyrazol-1-yl]phenyl]methyl]pyrrolidine-2-carboxamide] | 103 nM |
| O=C(NCc1cc(F)cc(-c2ccc(C(F)F)cn2)c1)[C@@H]1C[C@@H](F)CN1S(=O)(=O)c1ccc(F)cc1 [Example 75, (2S,4R)—N-[[3-[5-(difluoromethyl)-2-pyridyl]-5-fluoro-phenyl]methyl]-4-fluoro-1-(4-fluorophenyl)sulfonyl-pyrrolidine-2-carboxamide] | 31 nM |
| C[C@@H]1[C@@H](C(=O)NCc2cc(-c3ccc(C(F)(F)F)nc3)ncn2)N(S(=O)(=O)c2ccc(F)cc2)C[C@@H]1F (single isomer, unassigned) [Example 106] | 280 nM |
| N#Cc1nn(-c2ccc(C(F)(F)F)cc2)cc1CNC(=O)[C@@H]1C[C@@H](F)CN1S(=O)(=O)c1ccc(F)cc1 [Example 50, (2S,4R)—N-([3-cyano-1-[4-(trifluoromethyl)phenyl]-1H-pyrazol-4-yl]methyl)-4-fluoro-1-[(4-fluorobenzene)sulfonyl]pyrrolidine-2-carboxamide] | 60 nM |
| O=C(NCc1cc(-c2ccc(C(F)(F)F)c(F)c2)ncn1)[C@@H]1C[C@@H](F)CN1S(=O)(=O)c1ccc(F)cc1 [Example 114, (2S,4R)-4-fluoro-N-([6-[3-fluoro-4-(trifluoromethyl)phenyl]pyrimidin-4-yl]methyl)-1-[(4-fluorobenzene)sulfonyl]pyrrolidine-2-carboxamide] | 26 nM |

Further lines, results first:

| IC50 | Molecule |
| --- | --- |
| 113 nM | O=C(NCc1cc(-c2ccc(C(F)(F)F)nc2)ncn1)[C@@H]1C[C@]2(CN1S(=O)(=O)c1ccc(F)cc1)CC2(F)F (single isomer, unassigned) [Example 124] |
| 40 nM | (2S,4R)-4-fluoro-N-[[5-fluoro-4-[5-fluoro-6-(trifluoromethyl)-3-pyridyl]-2-pyridyl]methyl]-1-(4-fluorophenyl)sulfonyl-pyrrolidine-2-carboxamide [Example 65] |
| 68 nM | O=C(NCc1cc(-c2ccc(C(F)(F)F)nc2)ncc1F)[C@@H]1C[C@@H](F)CN1S(=O)(=O)c1ccc(F)cc1 [Example 141, (2S,4R)-4-fluoro-N-((5-fluoro-6′-(trifluoromethyl)-2,3′-bipyridin-4-yl)methyl)-1-(4-fluorophenylsulfonyl)pyrrolidine-2-carboxamide] |
| 116 nM | Cc1cnc(-c2cnc(C(F)(F)F)nc2)cc1CNC(=O)[C@@H]1C[C@@H](F)CN1S(=O)(=O)c1ccc(F)cc1 [Example 169, (2S,4R)-4-fluoro-1-[(4-fluorobenzene)sulfonyl]-N-([5-methyl-2-[2-(trifluoromethyl)pyrimidin-5-yl]pyridin-4-yl]methyl)pyrrolidine-2-carboxamide] |
| 34 nM | O=C(NCc1cc([C@H]2CC[C@H](C(F)(F)F)CC2)ncn1)[C@@H]1C[C@@H](F)CN1S(=O)(=O)c1ccc(F)cc1 (single isomer, unassigned) [Example 149] |
| 86 nM | O=C(NCc1ccnc(-c2ccc(OC(F)F)cc2)c1)[C@@H]1C[C@@H](F)CN1S(=O)(=O)c1ccc(F)cc1 [Example 160, (2S,4R)—N-[[2-[4-(difluoromethoxy)phenyl]-4-pyridyl]methyl]-4-fluoro-1-(4-fluorophenyl)sulfonyl-pyrrolidine-2-carboxamide] |
| 9 nM | O=C(NCc1cc(-c2ccc(C(F)(F)F)nc2)ccc1F)[C@@H]1C[C@@H](F)CN1S(=O)(=O)c1ccc(F)cc1 [Example 161, (2S,4R)-4-fluoro-N-(2-fluoro-5-(6-(trifluoromethyl)pyridin-3-yl)benzyl)-1-((4-fluorophenyl)sulfonyl)pyrrolidine-2-carboxamide] |
| 15 nM | O=C(NCc1cn(-c2ccc(C(F)(F)F)cc2)nc1Cl)[C@@H]1CCN1S(=O)(=O)c1ccc(F)cc1 [Example 197, (2S)—N-([3-chloro-1-[4-(trifluoromethyl)phenyl]-1H-pyrazol-4-yl]methyl)-1-[(4-fluorobenzene)sulfonyl]azetidine-2-carboxamide] |
| 3 nM | O=C(NCc1cc(-c2cnc(C(F)(F)F)nc2)ccc1F)[C@@H]1[C@H]2C[C@H]2CN1S(=O)(=O)c1ccc(F)cc1 [Example 183, (1S,2S,5R)—N-(2-fluoro-5-(2-(trifluoromethyl)pyrimidin-5-yl)benzyl)-3-((4-fluorophenyl)sulfonyl)-3-azabicyclo[3.1.0]hexane-2-carboxamide] |
| 5 nM | O=C(NCc1cc(-c2ccc(C(F)(F)F)cc2)ccc1F)[C@@H]1C[C@@H](F)CN1S(=O)(=O)c1ccc(F)cc1 [Example 177, (2S,4R)-4-fluoro-N-((4-fluoro-4′-(trifluoromethyl)-[1,1′-biphenyl]-3-yl)methyl)-1-((4-fluorophenyl)sulfonyl)pyrrolidine-2-carboxamide] |
